In assay [1] the test system is fresh plasma taken from Wister rat. The assay can be described thus: Anti-blood coagulation activity by activated partial thromboplastin time (APTT). Type of assay: biochemical. Conditions: 9 μg/mL or 3 μg/mL. The source says:
Anti-blood coagulation activity of the sugar chain compound such as oligosaccharide or a salt thereof used in the agent of the present invention for promoting HGF production can be assessed by measuring an activated partial thromboplastin time (APTT) or anti-factor Xa activity according to the known methods that have been used for measuring anti-blood coagulation activity of low-molecular-weight heparin.
Regarding the heparin fragments (oligosaccharides) obtained in Example 1, anti-blood coagulation activity and LPL releasing activity were measured. Anti-blood coagulation activity was assessed by comparing an activated partial thromboplastin time (APTT). APTT was measured using fresh plasma taken from Wister rat (male) and Data φ·APTT kit (Sysmex) which utilizes activation by ellagic acid. The heparin fragments were added to rat plasma at a concentration of 9 μg/mL or 3 μg/mL, and APTT values (second) were compared.

In assay [2] the test system is lipoprotein lipase (LPL). The assay can be described thus: LPL releasing activity (LPL amount in plasma by ELISA after tail vein administration). The assay is classed as in vivo, Wister rat. Conditions: rat, after 10 minutes. An excerpt: LPL releasing activity of the sugar chain compound such as oligosaccharide used in the agent of the present invention for promoting HGF production or a salt thereof can be assessed by administering the sugar chain compound or a salt thereof to a mouse or a rat, taking the plasma after a certain time, and measuring the amount of LPL in the plasma. The amount of LPL in the plasma can be determined by measuring LPL activity, or measuring the mass of LPL protein by ELISA.
For measuring LPL releasing activity, heparin fragments were administered to Wister rat (3-week old male) via the tail vein at 0.3 μg per 1 g of body weight and, after 10 minutes, blood was taken from axillary fossa venous plexus, and a LPL amount in the resulting plasma was measured by ELISA (Daiichi Pure Chemicals Co., Ltd). In high-molecular weight heparin, about 250 ng/mL LPL was released, but in low-molecular weight heparin (Fragmin, Kissei Pharmaceutical Co., Ltd.), released LPL amount was reduced to about 30% of the amount in the case of high-molecular weight heparin. […] In particular, in oligosaccharides not larger than octasaccharide, reduction in released LPL amount was remarkable.
For orientation: In an ELISA, binding on a coated surface is turned into a signal by an enzyme label.

The subject of assay [3] is MRC-9 cells, human fetal lung fibroblasts. The assay is described as follows: Activity to promote HGF production in MRC-9 cells (HGF in culture medium by ELISA). The assay is classed as cell-based. As to conditions: 0 to 50 μg/ml. The protocol: An activity to promote HGF production of the agent of the present invention can be measured by comparing the HGF concentration in the culture medium of HGF-producing cells when the sugar chain compounds such as oligosaccharides or a salt thereof are added with that when they are not added, wherein the concentration of HGF can be measured by ELISA. As an HGF-producing cell, MRC-5 and MRC-9 cells, human fetal lung fibroblasts, can be used.
Activities to promote HGF production of the heparin fragments (oligosaccharides) obtained in Example 1 were measured by using MRC-9 cells, human fetal lung fibroblasts. The cells were cultured with heparin fragments(oligosaccharides) and amounts of HGF produced by the cell were analyzed. First, MRC-9 cells were seeded onto a 48 well plate at a density of 5×10^4 cells/cm^2, and cultured in a DMEM medium containing 10% FCS for one day. After removing the medium, the cells were washed twice with 0.5 mL of PBS, and the medium was exchanged with a DMEM medium containing 1% FCS. Thereafter, the culture was continued. At this time, the heparin fragments obtained in Example 1 were added to the medium at a final concentration of 1 μg/ml. After 24 hours, the culture supernatant was recovered, and an amount of HGF secreted into the culture medium was measured by the ELISA method. […]

Take `NC1C(O)OC(CO)C(OC2OC(C(=O)O)=CC(O)C2OS(=O)(=O)O)C1O` (stereo not drawn) [2-Sac-2S, ΔUA-2S-GlcN]: in assay [1], the “anti-blood coagulation activity / extension of APTT (in words)” value is “not detected”. Besides, the “LPL releasing activity (in words)” value in assay [2] was “not detected”.
As for `CC(=O)N[C@H]1C(O)O[C@H](COS(=O)(=O)O)[C@@H](O[C@@H]2OC(C(=O)O)=C[C@H](O)[C@H]2O)[C@@H]1O` (some centres unmarked) [2-Sac-6S, ΔUA-GlcNAc-6S], the “anti-blood coagulation activity / extension of APTT (in words)” value in assay [1] is given as “not detected”. The “activity to promote HGF production of disaccharide compounds (in words)” value in assay [3] is “higher activity to promote HGF production than 2-Sac-2S”. Also, the “LPL releasing activity (in words)” value in assay [2] is “not detected”.
On to `O=C(O)C1=C[C@H](O)[C@@H](O)[C@H](O[C@H]2[C@H](O)[C@@H](NS(=O)(=O)O)C(O)O[C@@H]2CO)O1` (some centres unmarked) [2-Sac-NS, ΔUA-GlcNS], for which, in assay [1], the “anti-blood coagulation activity / extension of APTT (in words)” value is “not detected”. Further, the “activity to promote HGF production of disaccharide compounds (in words)” value in assay [3] is “higher activity to promote HGF production than 2-Sac-2S”. Moreover, the “LPL releasing activity (in words)” value in assay [2] is “not detected”.

Source of the values: patent publication US20060293275A1, “Hgf production accelerator containing heparin-like oligosaccharide” (priority 2004, published 2006).
